Results reported in patent publication US20260234124A1, “Substituted Pyrazolyl-Pyridinyl Compounds as Ligand Directed Degraders of IRAK3” (Celgene Corporation, priority 2022, published 2026).

Molecular target: T1, IRAK3-ePL (Homo sapiens, UniProt Q9Y616)
T1 construct: expressed in transfected cells; host or cells: 293T CRBN OE/GSPT1 G575N KI cells, lentiviral transduction, puromycin selection
Assay: IRAK3-ePL overexpressing degradation assay
Assay type: cell-based
Conditions: IRAK3-ePL Lenti-X 293T CRBN/GSPT1 G575N cells, overnight incubation, top dose 10 μM; for Dmax: HEK-293T, maximum percentage loss of target protein; for DC50: read-out: IRAK3 ePL degradation EC50
Description: Example B1. IRAK3-ePL Overexpressing Degradation Assay
Stable cell lines were generated by the following protocol. 3×10^5 Lenti-X 293T cells (Clonetech) were plated in 0.8 mL of media in a 12-well plate and incubated overnight at 37° C./5% CO2. Packaging plasmid (0.4 μg, pMD), envelope plasmid (0.4 μg, pSP), and lentiviral transfer IRAK3-ePL plasmid (0.8 μg, IRAK3 sequence NM_007199.3) were mixed in 0.1 mL of Opti-MEM and incubated for 5 min. Simultaneously, 2.4 μL of Lipofectamine 2000 (Invitrogen) was added to 0.1 mL of Opti-MEM (Gibco) and incubated for 5 min. The plasmid DNA and lipofectamine were combined and the mixture was allowed to incubate for 20 min. DNA:Lipofectamine Opti-MEM mixtures were then added to previously plated cells dropwise and the cells were incubated for ~16 h at 37° C./5% CO2. Following incubation, the media was removed and 1.2 mL of fresh media was added per well. Lenti-X 293T cells were incubated for ~30 h at 37° C./5% CO2. […] Following incubation, media was removed from the Lenti-X 293T wells and passed through a […]. Part of the viral supernatant was used to transduce cells and the rest was stored at −80° C. Viruses were then added individually (0.5 mL virus) to each well of the 293T^CRBN OE/GSPT1 G575N KI cells, followed by addition of polybrene (10 mg/mL Millipore) to each well at a final concentration of 5.0 μg/mL. Cells were incubated for ~24 h at 37° C./5% CO2. After aspirating media off plates, cells were washed with DPBS, trypsinized and plated in a 10 cm dish in 15 mL of media and 1 μg/mL puromycin. Following incubation of cells for ~72 h at 37° C./5% CO2, media was aspirated off plates, and cells were washed with DPBS and trypsinized. The cells were plated in a 15 cm dish in 40 mL of media with 1.0 μg/mL Puromycin (Gibco) and incubated for ~72 h at 37° C./5% CO2. Following incubation, media was removed and cells were washed with DPBS and trypsinized. The majority of cells were resuspended in Invitrogen freezing media and stored away (~6-8×10^6 cells/vial).
IRAK3-ePL cellular dose response curve degradation assays were performed by the following protocol. Compounds to be tested were dispensed into a white 384-well tissue-culture treated plate using an acoustic liquid handler. Dilutions were prepared based on a 25 μL assay volume in duplicate 10 point 3-fold serial dilutions starting with a 10 μM dose. Negative control wells were included, which only contain 0.2% DMSO to calculate 100% signal. Positive control wells containing 30 μM Ataluren (luciferase inhibitor) were included to calculate the background signal level. All wells were backfilled to a final DMSO concentration of 0.2% to ensure DMSO uniformity across wells. IRAK3-ePL expressing cells (IRAK3-ePL Lenti-X 293T^CRBN/GSPT1 G575N) were washed, trypsinized, counted, and resuspended in fresh DMEM (Gibco) to give a cell concentration of 200,000 cells/mL. 25 μL of cells (5,000 cells/well) were dispensed into the wells of the 384-well plate prespotted with compounds in the previous step and incubated overnight at 37° C./5% CO2. Following incubation, the 384-well plate was taken out of the incubator and left at room temperature for 30 min. InCELL hunter reagent was prepared according to manufacturer's instructions (EA reagent, lysis buffer, and substrate reagent in a 1:1:4 ratio, Cat #96-0002, DiscoverX), which was added to the 384-well plate 25 μL per well. Following the incubation of the plate for 1 h at room temperature, the luminescence signal was read using a ViewLux plate reader. Data was processed and analyzed in ActivityBase software. In short, the average luminescence values of the positive control wells were subtracted from the rest of the wells for background correction, and all luminescence values were normalized to the DMSO control wells. The average value of the DMSO control wells was set to equal 100% of the relative IRAK3-ePL protein levels. […]

Row | Structure (SMILES) | Dmax | DC50
1 | C[C@@H](Oc1cc(-c2cnn(C3CCN(CCOCCOCCOCCOCCNC(=O)COc4ccc5c(c4)C(=O)N(C4CCC(=O)NC4=O)C5=O)CC3)c2)cnc1N)c1c(Cl)ccc(F)c1Cl (stereo partly drawn) [Compound 17, N-(14-(4-(4-(6-amino-5-((R)-1-(2,6-dichloro-3-fluorophenyl)ethoxy)pyridin-3-yl)-1H-pyrazol-1-yl)piperidin-1-yl)-3,6,9,12-tetraoxatetradecyl)-2-((2-(2,6-dioxopiperidin-3-yl)-1,3-dioxoisoindolin-5-yl)oxy)acetamide] | 18% | > 10 µM
2 | C[C@@H](Oc1cc(-c2cnn(C3CCN(CCOCCNC(=O)COc4ccc5c(c4)C(=O)N(C4CCC(=O)NC4=O)C5=O)CC3)c2)cnc1N)c1c(Cl)ccc(F)c1Cl (stereo partly drawn) [Compound 14, N-(2-(2-(4-(4-(6-amino-5-((R)-1-(2,6-dichloro-3-fluorophenyl)ethoxy)pyridin-3-yl)-1H-pyrazol-1-yl)piperidin-1-yl)ethoxy)ethyl)-2-((2-(2,6-dioxopiperidin-3-yl)-1,3-dioxoisoindolin-5-yl)oxy)acetamide] | 12% | > 10 µM
3 | Cc1ncsc1-c1ccc(CNC(=O)[C@@H]2C[C@@H](O)CN2C(=O)[C@@H](NC(=O)COCCOCCOCCN2CCC(n3cc(-c4cnc(N)c(O[C@H](C)c5c(Cl)ccc(F)c5Cl)c4)cn3)CC2)C(C)(C)C)cc1 [Compound 3, (2S,4R)-1-((S)-14-(4-(4-(6-amino-5-((R)-1-(2,6-dichloro-3-fluorophenyl)ethoxy)pyridin-3-yl)-1H-pyrazol-1-yl)piperidin-1-yl)-2-(tert-butyl)-4-oxo-6,9,12-trioxa-3-azatetradecanoyl)-4-hydroxy-N-(4-(4-methylthiazol-5-yl)benzyl)pyrrolidine-2-carboxamide] | 13% | > 10 µM
4 | C[C@@H](Oc1cc(-c2cnn(C3CCN(CCOCCNC(=O)COc4cccc5c4C(=O)N(C4CCC(=O)NC4=O)C5=O)CC3)c2)cnc1N)c1c(Cl)ccc(F)c1Cl (stereo partly drawn) [Compound 9, N-(2-(2-(4-(4-(6-amino-5-((R)-1-(2,6-dichloro-3-fluorophenyl)ethoxy)pyridin-3-yl)-1H-pyrazol-1-yl)piperidin-1-yl)ethoxy)ethyl)-2-((2-(2,6-dioxopiperidin-3-yl)-1,3-dioxoisoindolin-4-yl)oxy)acetamide] | 12% | > 10 µM
5 | C[C@@H](Oc1cc(-c2cnn(C3CCN(CCOCCOCCOCCOCCNC(=O)COc4cccc5c4C(=O)N(C4CCC(=O)NC4=O)C5=O)CC3)c2)cnc1N)c1c(Cl)ccc(F)c1Cl (stereo partly drawn) [Compound 12, N-(14-(4-(4-(6-amino-5-((R)-1-(2,6-dichloro-3-fluorophenyl)ethoxy)pyridin-3-yl)-1H-pyrazol-1-yl)piperidin-1-yl)-3,6,9,12-tetraoxatetradecyl)-2-((2-(2,6-dioxopiperidin-3-yl)-1,3-dioxoisoindolin-4-yl)oxy)acetamide] | 30% | > 10 µM

Second part, the compound after the results:

Row | Dmax | DC50 | Structure (SMILES)
6 | 80% | 0.066 µM | C[C@@H](Oc1cc(-c2cnn(C3CCN(C4CCC5(CC4)CCN(C(=O)c4ccc6c(c4)C(=O)N(C4CCC(=O)NC4=O)C6=O)CC5)CC3)c2)cnc1N)c1c(Cl)ccc(F)c1Cl (stereo partly drawn) [Compound 18, 5-(9-(4-(4-(6-amino-5-((R)-1-(2,6-dichloro-3-fluorophenyl)ethoxy)pyridin-3-yl)-1H-pyrazol-1-yl)piperidin-1-yl)-3-azaspiro[5.5]undecane-3-carbonyl)-2-(2,6-dioxopiperidin-3-yl)isoindoline-1,3-dione]
7 | 26% | > 10 µM | Cc1ncsc1-c1ccc(CNC(=O)[C@@H]2C[C@@H](O)CN2C(=O)[C@@H](NC(=O)COCCOCCOCCOCCN2CCC(n3cc(-c4cnc(N)c(O[C@H](C)c5c(Cl)ccc(F)c5Cl)c4)cn3)CC2)C(C)(C)C)cc1 [Compound 4, (2S,4R)-1-((S)-17-(4-(4-(6-amino-5-((R)-1-(2,6-dichloro-3-fluorophenyl)ethoxy)pyridin-3-yl)-1H-pyrazol-1-yl)piperidin-1-yl)-2-(tert-butyl)-4-oxo-6,9,12,15-tetraoxa-3-azaheptadecanoyl)-4-hydroxy-N-(4-(4-methylthiazol-5-yl)benzyl)pyrrolidine-2-carboxamide]
8 | 19% | > 10 µM | C[C@@H](Oc1cc(-c2cnn(C3CCN(CCOCCOCCOCCNC(=O)COc4ccc5c(c4)C(=O)N(C4CCC(=O)NC4=O)C5=O)CC3)c2)cnc1N)c1c(Cl)ccc(F)c1Cl (stereo partly drawn) [Compound 16, N-(2-(2-(2-(2-(4-(4-(6-amino-5-((R)-1-(2,6-dichloro-3-fluorophenyl)ethoxy)pyridin-3-yl)-1H-pyrazol-1-yl)piperidin-1-yl)ethoxy)ethoxy)ethoxy)ethyl)-2-((2-(2,6-dioxopiperidin-3-yl)-1,3-dioxoisoindolin-5-yl)oxy)acetamide]
9 | 78% | 0.066 µM | C[C@@H](Oc1cc(-c2cnn(C3CCN(C4CCC5(CC4)CCN(C(=O)c4cccc(NC6CCC(=O)NC6=O)c4)CC5)CC3)c2)cnc1N)c1c(Cl)ccc(F)c1Cl (stereo partly drawn) [Compound 22, 3-((3-(9-(4-(4-(6-Amino-5-((R)-1-(2,6-dichloro-3-fluorophenyl)ethoxy)pyridin-3-yl)-1H-pyrazol-1-yl)piperidin-1-yl)-3-azaspiro[5.5]undecane-3-carbonyl)phenyl)amino)piperidine-2,6-dione]
10 | 8% | > 10 µM | Cc1ncsc1-c1ccc(CNC(=O)[C@@H]2C[C@@H](O)CN2C(=O)[C@@H](NC(=O)CCCN2CCC(n3cc(-c4cnc(N)c(O[C@H](C)c5c(Cl)ccc(F)c5Cl)c4)cn3)CC2)C(C)(C)C)cc1 [Compound 1, (2S,4R)-1-((S)-2-(4-(4-(4-(6-amino-5-((R)-1-(2,6-dichloro-3-fluorophenyl)ethoxy)pyridin-3-yl)-1H-pyrazol-1-yl)piperidin-1-yl)butanamido)-3,3-dimethylbutanoyl)-4-hydroxy-N-(4-(4-methylthiazol-5-yl)benzyl)pyrrolidine-2-carboxamide]
11 | 25% | > 10 µM | Cc1ncsc1-c1ccc(CNC(=O)[C@@H]2C[C@@H](O)CN2C(=O)[C@@H](NC(=O)COCCOCCN2CCC(n3cc(-c4cnc(N)c(O[C@H](C)c5c(Cl)ccc(F)c5Cl)c4)cn3)CC2)C(C)(C)C)cc1 [Compound 2, (2S,4R)-1-((S)-2-(2-(2-(2-(4-(4-(6-amino-5-((R)-1-(2,6-dichloro-3-fluorophenyl)ethoxy)pyridin-3-yl)-1H-pyrazol-1-yl)piperidin-1-yl)ethoxy)ethoxy)acetamido)-3,3-dimethylbutanoyl)-4-hydroxy-N-(4-(4-methylthiazol-5-yl)benzyl)pyrrolidine-2-carboxamide]
12 | 38% | > 10 µM | Cc1ncsc1-c1ccc(CNC(=O)[C@@H]2C[C@@H](O)CN2C(=O)[C@@H](NC(=O)COCCOCCOCCOCCOCCOCCOCCN2CCC(n3cc(-c4cnc(N)c(O[C@H](C)c5c(Cl)ccc(F)c5Cl)c4)cn3)CC2)C(C)(C)C)cc1 [Compound 7, (2S,4R)-1-((S)-26-(4-(4-(6-amino-5-((R)-1-(2,6-dichloro-3-fluorophenyl)ethoxy)pyridin-3-yl)-1H-pyrazol-1-yl)piperidin-1-yl)-2-(tert-butyl)-4-oxo-6,9,12,15,18,21,24-heptaoxa-3-azahexacosanoyl)-4-hydroxy-N-(4-(4-methylthiazol-5-yl)benzyl)pyrrolidine-2-carboxamide]
